Data as given in patent US8834841B2, “Imaging agents” (priority 2005, dated 2014).

Experiments:
[1] = test system: SKOV3 Ovarian Tumor Cells Implanted SC in SCID Mice; assay: tissue distribution, SKOV3 tumor-bearing SCID mice; type: in vivo
Description: For the in vitro amino acid uptake studies, all cells can be grown to monolayer confluency in T-175 culture flasks [Corning, Corning, N.Y.] (approx. 1×10^8 cells/flask) in Dulbecco's Modified Eagle's Medium (DMEM) [Sigma, St. Louis, Mo.] in a humidified incubator (37° C., 5% CO2/95% air). Media are supplemented with 10% fetal calf serum [Hyclone, Logan, Utah], and antibiotics (10,000 U/ml penicillin and 10 mg/ml streptomycin) (Sigma, St. Louis, Mo.). For tissue culture passage, monolayer cells are detached by gentle trypsinization, resuspended in complete media, and split 1:10 into new T-flasks. Cultures are passaged weekly, and fed fresh media every 2 to 3 days. To initiate tumor growth in SCID mice, 1×10^6 cells are injected s.c. bilaterally into the flanks (inguinal region) of the recipient animals using a 1 ml syringe with a 27 gauge needle. Ex vivo experiments can be performed with animals containing tumors weighing between 500 mg and 1 g, as estimated by caliper measurement (tumor weight=(π/6)*abc, where a, b and c are the tumor length, width and height, respectively). The compounds of the invention are further evaluated for their tumor specificity and selectivity in tumor-bearing animal models. One can evaluate and compare the transport, accumulation and tissue distribution of each compound in these in vivo animal studies. Tissue distribution of the compounds is measured in SCID mice (average weight, 20-25 g) bearing human tumors as follows. The candidate radioligands (20 uCi in 0.4 ml 0.9% NaCl) are injected into the tail vein of tumor-bearing mice. […] Tissues (blood, heart, liver, lungs, kidneys, bone, thyroid, muscle, brain and tumor) are excised, rinsed in saline, and blotted dry. The tissues are weighed, placed into 12×75 mm glass vials, the radioactivity determined with a gamma counter, and the percent dose/gram calculated. Total activities of blood and muscle are calculated by assuming that they account for 7% and 40% of the total body mass, respectively.

SKOV3 ovarian carcinoma = assay: in vitro amino acid uptake, SKOV3 cells; type: cell-based, human
Excerpt: (§1) The inventive compounds have been evaluated in vitro for tumor binding specificity (i.e. uptake cells) using a variety of tumor cell lines available in the art, along with reference compounds such as Me-AIB and BCH. Detailed description of these assays can be found in Martarello et al. (2002) Journal of Medicinal Chemistry, 45:2250-2259 and McConathy et al. (2003) Nuclear Medicine and Biology, 30:477-490. These, so called “amino acid uptake studies” are typically carried out with radiolabeled compounds in at least five phenotypically different human tumor cell lines (e.g. A549 lung carcinoma, MB468 breast carcinoma, DU145 prostate carcinoma, SKOV3 ovarian carcinoma, and U87 glial blastoma). These tumor cell lines can be grown either in vitro or in vivo with severe combined immunodeficiency (SCID) mice as a host. The fore-mentioned tumor cell lines are available at the Winship Cancer Institute of Emory University.
(§2) For the in vitro amino acid uptake studies, all cells can be grown to monolayer confluency in T-175 culture flasks [Corning, Corning, N.Y.] (approx. 1×10^8 cells/flask) in Dulbecco's Modified Eagle's Medium (DMEM) [Sigma, St. Louis, Mo.] in a humidified incubator (37° C., 5% CO2/95% air). Media are supplemented with 10% fetal calf serum [Hyclone, Logan, Utah], and antibiotics (10,000 U/ml penicillin and 10 mg/ml streptomycin) (Sigma, St. Louis, Mo.). For tissue culture passage, monolayer cells are detached by gentle trypsinization, resuspended in complete media, and split 1:10 into new T-flasks. […]
(§3) In the in vitro studies the uptake rate of each amino acid compound is measured in each tumor line, as well as the dominant transport mechanisms of each tumor cell line. After trypsinization, cells are resuspended in serum-free media, then counted on a hemocytometer, with viability assessed through Trypan blue staining. […] The vials are placed in a Cobra-II gamma counter (Packard, Meriden, Conn.), with the activity per cell number determined. […] Saline washes are performed as described above, and the filtered cells radioactivity determined on the gamma counter. […]

A549 lung carcinoma = assay: in vitro amino acid uptake, A549 cells; type: cell-based, human
Excerpt: as §1, §2, §3

% Dose/g blood ([1]; 15 Minutes): 3.01 % Dose/g
% Dose/g bone ([1]; 15 Minutes): 1.40 % Dose/g
% Dose/g brain ([1]; 15 Minutes): 0.18 % Dose/g
% Dose/g heart ([1]; 15 Minutes): 2.37 % Dose/g
% Dose/g kidney ([1]; 15 Minutes): 8.70 % Dose/g
% Dose/g liver ([1]; 15 Minutes): 2.62 % Dose/g
% Dose/g lung ([1]; 15 Minutes): 3.96 % Dose/g
% Dose/g muscle ([1]; 15 Minutes): 1.14 % Dose/g
% Dose/g pancreas ([1]; 15 Minutes): 34.27 % Dose/g
% Dose/g spleen ([1]; 15 Minutes): 5.00 % Dose/g
% Dose/g tumor ([1]; 15 Minutes): 4.89 % Dose/g
% Dose/g blood ([1]; 30 Minutes): 2.22 % Dose/g
% Dose/g bone ([1]; 30 Minutes): 1.46 % Dose/g
% Dose/g brain ([1]; 30 Minutes): 0.21 % Dose/g
% Dose/g heart ([1]; 30 Minutes): 2.16 % Dose/g
% Dose/g kidney ([1]; 30 Minutes): 6.12 % Dose/g
% Dose/g liver ([1]; 30 Minutes): 2.49 % Dose/g
% Dose/g lung ([1]; 30 Minutes): 2.65 % Dose/g
% Dose/g muscle ([1]; 30 Minutes): 1.21 % Dose/g
% Dose/g pancreas ([1]; 30 Minutes): 31.88 % Dose/g
% Dose/g spleen ([1]; 30 Minutes): 5.22 % Dose/g
% Dose/g tumor ([1]; 30 Minutes): 5.56 % Dose/g
% Dose/g blood ([1]; 60 Minutes): 0.94 % Dose/g
% Dose/g bone ([1]; 60 Minutes): 0.91 % Dose/g
% Dose/g brain ([1]; 60 Minutes): 0.15 % Dose/g
% Dose/g heart ([1]; 60 Minutes): 1.40 % Dose/g
% Dose/g kidney ([1]; 60 Minutes): 2.27 % Dose/g
% Dose/g liver ([1]; 60 Minutes): 1.28 % Dose/g
% Dose/g lung ([1]; 60 Minutes): 1.26 % Dose/g
% Dose/g muscle ([1]; 60 Minutes): 1.03 % Dose/g
% Dose/g pancreas ([1]; 60 Minutes): 17.57 % Dose/g
% Dose/g spleen ([1]; 60 Minutes): 2.57 % Dose/g
% Dose/g tumor ([1]; 60 Minutes): 4.53 % Dose/g
% Dose/g blood ([1]; 120 Minutes): 0.53 % Dose/g
% Dose/g bone ([1]; 120 Minutes): 0.94 % Dose/g
% Dose/g brain ([1]; 120 Minutes): 0.16 % Dose/g
% Dose/g heart ([1]; 120 Minutes): 1.00 % Dose/g
% Dose/g kidney ([1]; 120 Minutes): 1.37 % Dose/g
% Dose/g liver ([1]; 120 Minutes): 0.67 % Dose/g
% Dose/g lung ([1]; 120 Minutes): 0.68 % Dose/g
% Dose/g muscle ([1]; 120 Minutes): 0.65 % Dose/g
% Dose/g pancreas ([1]; 120 Minutes): 10.42 % Dose/g
% Dose/g spleen ([1]; 120 Minutes): 1.51 % Dose/g
% Dose/g tumor ([1]; 120 Minutes): 3.39 % Dose/g
SMILES: NC1(C(=O)O)CCC1[18F] [Anti-R,S 2-[^18F]FACBC, (R,S) anti-1-amino-2-[^18F]fluorocyclobutyl-1-carboxylic acid]
% Dose Uptake/0.5e6 Cells (SKOV3 ovarian carcinoma; SKOV3, No inhibitor): 2.16 +/− 0.14 % Dose Uptake/0.5e6 Cells
% Dose Uptake/0.5e6 Cells (SKOV3 ovarian carcinoma; SKOV3, inhibitor BCH (10 mM)): 1.74 +/− 0.01 % Dose Uptake/0.5e6 Cells
% Dose Uptake/0.5e6 Cells (SKOV3 ovarian carcinoma; SKOV3, inhibitor MeAlB (10 mM)): 0.75 +/− 0.01 % Dose Uptake/0.5e6 Cells
% Dose Uptake/0.5e6 Cells (A549 lung carcinoma; A549, No inhibitor): 8.89 +/− 0.36 % Dose Uptake/0.5e6 Cells
% Dose Uptake/0.5e6 Cells (A549 lung carcinoma; A549, inhibitor BCH (10 mM)): 3.99 +/− 0.39 % Dose Uptake/0.5e6 Cells
% Dose Uptake/0.5e6 Cells (A549 lung carcinoma; A549, inhibitor MeAlB (10 mM)): 6.93 +/− 0.20 % Dose Uptake/0.5e6 Cells
